Reference: patent US20240368133A1, “Compounds for the Treatment of Pain, in Particular, Neuropathic Pain, and/or Other Diseases or Disorders that are Associated with AT2R and/or AT2R Mediated Signaling” (Confo Therapeutics N.V., priority 2021, published 2024)

Key:
human AT2R fused to Cb23 = human AT2R fused to Cb23 (Homo sapiens, UniProt P50052); assay: Radioligand binding assay, displacement of 125I-[Sar1, Ile8]-Angiotensin II, hAT2R Cb23; conditions: displacement of 125I-[Sar1, Ile8]-Angiotensin II, human AT2R fused to Cb23, HEK-293 cell membrane preparations; read-out: Binding affinity on hAT2R_Cb23 IC50
Description: (§1) All synthesized ligands were evaluated in a radioligand assay by displacing ^125I-[Sar1, Ile8]-Angiotensin II (Perkin Elmer, NEX248050UC) from human AT2R fused to Cb23 or human/rodent/cynomolgus/minipig/dog WT AT2R in HEK-293 cells membrane preparations, using C21 (Vicore Pharma) and Angiotensin II (endogenous ligand) as reference. The affinity was determined using an eight-point dose-response curve, each point performed in duplicates. The compounds were also evaluated in a counterscreen binding assay for displacement of ^125I-[Sar1, Ile8]-Angiotensin II binding to human AT1R in HEK-293 cell membranes. For AT1R, the percent displacement was determined at 1 μM and […] (in duplicates) or using an eight-point dose-response curve, each point performed in duplicates with Candesartan and Losartan used as reference.
(§2) For the AT2R/AT1R binding assays, cell membranes, expressing AT2R_Cb23, AT2R or AT1R, were incubated with 0.05 nM ^125I-[Sarl, Ile8]-Ang II. The ligand competition assay was performed in a total volume of 100 μL assay buffer (50 mM Tris, 5 mM MgCl2, 1 mM EDTA, 0.1% BSA, pH 7.4), at concentrations ranging from […] to 10 μM. For each experiment, each ligand concentration was tested in duplicate. Non-specific binding (NSB) was determined by the inclusion of 10 μM unlabeled [Sarl]-Ang II (Sigma Aldrich). The reaction was initiated by the addition of radioligand, after which the plates were incubated at 25° C. for one hour. The reaction was terminated by rapid filtration using a vacuum harvester, applying six washes with 100 μL of ice-cold wash buffer (50 mM Tris.HCl, pH 7.4). The filter plates GF/C (Perkin Elmer) were pre-soaked in 0.5% PEI. The residual amount of radioactivity was determined via liquid scintillation counting. IC50 values, representing the concentration at which each ligand displaced 50% of ^125I-[Sarl, Ile8]-Ang II, were calculated using GraphPad Prism 7.02 by applying a Non-linear regression equation (variable slope, four parameters) on the data. The obtained values serve as affinity estimates for each ligand and their ability to compete against the radioligand for binding with AT2R or AT1R, respectively.

human AT1R = human AT1R (Homo sapiens (Human), UniProt P30556); assay: Counterscreen radioligand binding assay, displacement of 125I-[Sar1, Ile8]-Angiotensin II, hAT1R WT; conditions: for inhibition at 1 µM / inhibition at 10 µM: 125I-[Sar1, Ile8]-Ang II, semi-quantitative score; for inhibition at 1 µM: compound at 1 μM, read-out: % Displaced radioligand at 1 μM; for inhibition at 10 µM: compound at 10 μM, read-out: % Displaced radioligand at 10 μM; for IC50: HEK-293 cell membranes, read-out: Binding affinity On hAT1R IC50
Description: as §1, §2

human AT1R, sequence (P30556 whole entry): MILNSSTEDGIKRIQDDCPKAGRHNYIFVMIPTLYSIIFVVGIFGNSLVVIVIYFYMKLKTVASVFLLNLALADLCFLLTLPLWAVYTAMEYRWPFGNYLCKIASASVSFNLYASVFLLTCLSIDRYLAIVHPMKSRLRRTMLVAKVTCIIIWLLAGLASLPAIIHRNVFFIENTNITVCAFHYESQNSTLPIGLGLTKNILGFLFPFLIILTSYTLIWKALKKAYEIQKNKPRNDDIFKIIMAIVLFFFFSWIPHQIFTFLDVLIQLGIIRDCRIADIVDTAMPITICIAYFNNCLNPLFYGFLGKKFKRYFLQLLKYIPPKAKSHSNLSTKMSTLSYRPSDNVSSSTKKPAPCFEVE
human AT2R fused to Cb23, sequence (P50052 whole entry, looked up, the tested form may be a part): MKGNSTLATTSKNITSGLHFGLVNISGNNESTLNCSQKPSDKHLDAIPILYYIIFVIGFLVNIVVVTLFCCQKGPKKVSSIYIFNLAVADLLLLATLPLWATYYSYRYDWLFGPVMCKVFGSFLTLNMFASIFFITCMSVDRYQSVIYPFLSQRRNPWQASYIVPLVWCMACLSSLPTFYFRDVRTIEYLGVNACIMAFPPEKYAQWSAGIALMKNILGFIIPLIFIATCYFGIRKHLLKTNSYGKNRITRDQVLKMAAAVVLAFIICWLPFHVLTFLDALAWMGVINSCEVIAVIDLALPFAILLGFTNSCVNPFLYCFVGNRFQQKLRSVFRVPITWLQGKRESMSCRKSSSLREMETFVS

Compound | IC50 (human AT2R fused to Cb23) [µM] | inhibition at 1 µM (human AT1R) [%] | inhibition at 10 µM (human AT1R) [%] | IC50 (human AT1R) [µM]
CCS(=O)(=O)NC(=O)c1ccccc1CN1CCN(c2nc3ccccc3s2)CC1 [Compound A-02, 2-[[4-(1,3-benzo-thiazol-2-yl)piper-azin-1-yl]methyl]-N-ethylsulfonyl-benzamide] | 6.21 | < 30 | < 30 | 
c1ccc(-c2nn[nH]n2)c(CN2CCN(c3nc4ccccc4s3)CC2)c1 [Compound A-03, 2-[4-[[2-(2H-tetrazol-5-yl)phen-yl]-methyl]piper-azin-1-yl]-1,3-benzothiazole] | 15.9 | < 30 | < 30 | 
c1ccc(N2CCN(Cc3nc4ccccc4s3)CC2)c(-c2nn[nH]n2)c1 [Compound A-05, 2-[[4-[2-(2H-tetrazol-5-yl)phen-yl]piperazin-1-yl]-methyl]-1,3-benzo-thiazole] | 34.1 | < 30 | < 30 | 49.9
c1ccc(N2CCC(Cc3nc4ccccc4s3)CC2)c(-c2nn[nH]n2)c1 [Compound A-06, 2-[[1-[2-(2H-tetrazol-5-yl)phen-yl]-4-piperidyl]-methyl]-1,3-benzo-thiazole] | 16.5 | < 30 | 30 to 50 | 25.4
CCOC(=O)NS(=O)(=O)c1ccc(C(F)(F)F)cc1N1CCN(Cc2nc3ccccc3n2C)CC1 [Compound A-08, ethyl N-[2-[4-[(1-methylbenzimidazol-2-yl)methyl]piperazin-1-yl]-4-(trifluoromethyl)phenyl]sulfonylcarbamate] | 6.82 | < 30 | < 30 | 92.1
CCCCOC(=O)NS(=O)(=O)c1ccc(C)cc1N1CCN(Cc2nc3ccccc3n2C)CC1 [Compound A-11, butyl N-[4-methyl-2-[4-[(1-methylbenzimidazol-2-yl)methyl]piperazin-1-yl]phenyl]sulfonylcarbamate] | 0.959 | < 30 | < 30 | 37.7
CCS(=O)(=O)NC(=O)c1ccccc1N1CCN(Cc2nc3ccccc3n2C)CC1 [Compound A-13, N-ethylsulfonyl-2-[4-[(1-methylbenzimidazol-2-yl)methyl]piperazin-1-yl]benzamide] | 13.6 | < 30 | < 30 | 
CCS(=O)(=O)NC(=O)c1ccc(OC(C)C)cc1N1CCN(Cc2nc3ccccc3n2C)CC1 [Compound A-14, N-ethylsulfonyl-4-isopropoxy-2-[4-[(1-methylbenzimidazol-2-yl)methyl]piperazin-1-yl]benzamide] | 4.82 | < 30 | < 30 | 
Cn1c(CN2CCN(c3cc(C(F)(F)F)ccc3-c3nn[nH]n3)CC2)nc2ccccc21 [Compound A-17, 1-methyl-2-[[4-[2-(2H-tetrazol-5-yl)-5-(trifluoromethyl)-phenyl]piperazin-1-yl]methyl]benzimid-azole] | 14.3 | < 30 | < 30 | 
C/C=C/c1ccc(-c2nn[nH]n2)c(N2CCN(Cc3nc4ccccc4n3C)CC2)c1 [Compound A-18, 1-methyl-2-[[4-[5-[(E)-prop-1-enyl]-2-(2H-tetrazol-5-yl)-phenyl]piperazin-1-yl]methyl]benz-imidazole] | 3.85 | < 30 | < 30 | 
CCCc1ccc(-c2nn[nH]n2)c(N2CCN(Cc3nc4ccccc4n3C)CC2)c1 [Compound A-19, 1-methyl-2-[[4-[5-propyl-2-(2H-tetrazol-5-yl)phen-yl]piperazin-1-yl]-methyl]benzimid-azole] | 1.17 | < 30 | < 30 | 47.4
CC(=O)Nc1cc(-c2nn[nH]n2)c(N2CCN(Cc3nc4ccccc4s3)CC2)cc1C1CC1 [Compound A-131, N-[4-[4-(1,3-benzo-thiazol-2-ylmethyl)-piperazin-1-yl]-2-cyclopropyl-5-(2H-tetrazol-5-yl)phen-yl]acetamide] | 13.3 |  |  | 
CCc1cnc(-c2nn[nH]n2)c(N2CCN(Cc3nc4ccccc4s3)CC2)c1 [Compound A-141] | 22.7 |  |  | 
c1ccc2sc(CN3CCN(c4cc(C5CC5)ncc4-c4nn[nH]n4)CC3)nc2c1 [Compound A-144, 2-[[4-[2-cycloprop-yl-5-(2H-tetrazol-5-yl)-4-pyridyl]piper-azin-1-yl]methyl]-1,3-benzothiazole] | 14.8 |  |  | 
COc1cc(F)c(-c2nn[nH]n2)c(N2CCN(Cc3nc4ccccc4c(=O)[nH]3)CC2)c1 [Compound A-150, 2-[[4-[3-fluoro-5-methoxy-2-(2H-tetrazol-5-yl)phen-yl]piperazin-1-yl]-methyl]-3H-quin-azolin-4-one] | 33.8 |  |  | 
COc1cc(F)c(-c2nn[nH]n2)c(N2CCN(Cc3cccnn3)CC2)c1 [Compound A-155, 3-[[4-[3-fluoro-5-methoxy-2-(2H-tetrazol-5-yl)phen-yl]piperazin-1-yl]-methyl]pyridazine] | 72.8 |  |  | 
CC(C)Oc1cc(F)c(-c2nn[nH]n2)c(N2CCN(Cc3cccnn3)CC2)c1 [Compound A-156, 3-[[4-[3-fluoro-5-isopropoxy-2-(2H-tetrazol-5-yl)phen-yl]piperazin-1-yl]-methyl]pyridazine] | 11.6 |  |  | 
CC(C)Oc1ccc(-c2nn[nH]n2)c(N2CCN(Cc3cccnn3)CC2)c1F [Compound A-157, 3-[[4-[2-fluoro-3-isopropoxy-6-(2H-tetrazol-5-yl)phen-yl]piperazin-1-yl]-methyl]pyridazine] | 34.4 |  |  | 
CCc1cc(-c2nn[nH]n2)c(N2CCN(Cc3cccnn3)CC2)cc1OC(C)C [Compound A-158, 3-[[4-[4-ethyl-5-isopropoxy-2-(2H-tetrazol-5-yl)phen-yl]piperazin-1-yl]-methyl]pyridazine] | 44 |  |  | 
CCOc1cc(-c2nn[nH]n2)c(N2CCN(Cc3cccnn3)CC2)cc1OC(C)C [Compound A-162, 3-[[4-[4-ethoxy-5-isopropoxy-2-(2H-tetrazol-5-yl)phen-yl]piperazin-1-yl]-methyl]pyridazine] | 20.7 |  |  | 
Cc1cc(-c2nn[nH]n2)c(N2CCN(Cc3cccnn3)CC2)cc1CC(C)C [Compound A-166, 3-[[4-[5-isobutyl-4-methyl-2-(2H-tetrazol-5-yl)phen-yl]piperazin-1-yl]-methyl]pyridazine] | 22.1 |  |  | 
CC(C)Cc1cc(F)c(-c2nn[nH]n2)c(N2CCC(Cc3ccccn3)CC2)c1 [Compound A-237, 2-[[1-[3-fluoro-5-isobutyl-2-(2H-tetrazol-5-yl)phenyl]-4-piperidyl]methyl]pyridine] | 0.442 |  |  | 
CC(C)Cc1ccc(-c2nn[nH]n2)c(CN2CCN(Cc3cccnn3)CC2)c1 [Compound A-238, 3-[[4-[[5-isobutyl-2-(2H-tetrazol-5-yl)phenyl]methyl]-piperazin-1-yl]-methyl]pyridazine] | 18.8 |  |  | 
CCc1nc2ccccc2c(=O)n1CC1CCN(c2ccccc2-c2nn[nH]n2)CC1 [Compound A-240, 2-ethyl-3-[[1-[2-(2H-tetrazol-5-yl)-phenyl]-4-piperid-yl]methyl]quin-azolin-4-one] | 36.2 |  |  | 
CCc1nc2ccccc2c(=O)n1CC1CCN(c2ccccc2C(=O)NS(=O)(=O)CC)CC1 [Compound A-241, 2-[4-[(2-ethyl-4-oxo-quinazolin-3-yl)methyl]-1-piperidyl]-N-ethyl-sulfonyl-benzamide] | 42.5 |  |  | 
CCc1nc2ccc([N+](=O)[O-])cc2c(=O)n1CC1CCN(c2ccccc2-c2nn[nH]n2)CC1 [Compound A-242, 2-ethyl-6-nitro-3-[[1-[2-(2H-tetrazol-5-yl)phenyl]-4-piperidyl]methyl]quinazolin-4-one] | 27.7 |  |  | 
CCc1nc2ccc(NC(=O)C3CC3)cc2c(=O)n1CC1CCN(c2ccccc2-c2nn[nH]n2)CC1 [Compound A-247, N-[2-ethyl-4-oxo-3-[[1-[2-(2H-tetrazol-5-yl)phenyl]-4-piperidyl]methyl]-quinazolin-6-yl]-cyclopropane-carboxamide] | 35.3 |  |  | 
O=c1c2ccccc2nc(-c2ccccc2)n1CC1CCN(c2ccccc2-c2nnn[nH]2)CC1 [Compound A-249, 2-phenyl-3-[[1-[2-(2H-tetrazol-5-yl)phenyl]-4-piperidyl]methyl]quinazolin-4-one] | 79 |  |  | 
